From publication PMC9060145 (Skin Health and Disease, 2021)
One block for each compound: values may come before it.

What was measured:
CYP2C19 = molecular target: T1, CYP2C19 (Homo sapiens, UniProt P33261); assay: CYP450 inhibition assay, human liver microsomes; format: biochemical; settings: substrate omeprazole
T1 construct: from tissue; host or cells: human liver microsomes (per the earlier reading and the cited method)

LXRβ = molecular target: T2, LXRβ (Homo sapiens, UniProt P55055); assay: Nuclear receptor profiling, luciferase reporter in recombinant HeLa cells; format: cell-based
T2 construct: expressed in transfected cells; host or cells: recombinant HeLa cell lines
T2 sequence (P55055 1-460): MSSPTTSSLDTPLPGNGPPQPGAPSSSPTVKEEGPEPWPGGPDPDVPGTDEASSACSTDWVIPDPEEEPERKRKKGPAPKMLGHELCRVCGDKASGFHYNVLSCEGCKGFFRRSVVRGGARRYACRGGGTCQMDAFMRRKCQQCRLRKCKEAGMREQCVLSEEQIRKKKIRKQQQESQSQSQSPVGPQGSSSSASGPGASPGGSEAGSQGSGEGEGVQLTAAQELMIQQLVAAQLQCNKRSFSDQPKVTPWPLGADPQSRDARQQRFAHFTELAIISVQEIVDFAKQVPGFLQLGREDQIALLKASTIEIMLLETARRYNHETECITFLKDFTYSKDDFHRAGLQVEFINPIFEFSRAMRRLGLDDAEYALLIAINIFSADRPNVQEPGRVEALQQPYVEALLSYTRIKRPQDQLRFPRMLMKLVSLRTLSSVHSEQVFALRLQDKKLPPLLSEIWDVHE
Experimental: (§1) Nuclear receptor profiling, excluding retinoid X receptor (RXR), was previously described in detail.[24] Briefly, profiling was done using the Steady‐Glo luciferase assay kit (Promega, E2550) in recombinant HeLa cell lines expressing the respective receptors. Compounds were treated at nine doses (n = 2/dose) from 0.00015–10 µM. Data were normalized to minimum and maximum controls and 4‐parameter logistic regression fitting (Figure S2) was performed in XLfit software (IDBS).

CYP19 = molecular target: T3, CYP19 (Homo sapiens, UniProt P11511); assay: Qualitative CYP19 screening, CYP19 Supersomes, HPLC-MS/MS; format: biochemical
T3 construct: purchased Corning (Woburn, MA)
T3 sequence (P11511 1-503): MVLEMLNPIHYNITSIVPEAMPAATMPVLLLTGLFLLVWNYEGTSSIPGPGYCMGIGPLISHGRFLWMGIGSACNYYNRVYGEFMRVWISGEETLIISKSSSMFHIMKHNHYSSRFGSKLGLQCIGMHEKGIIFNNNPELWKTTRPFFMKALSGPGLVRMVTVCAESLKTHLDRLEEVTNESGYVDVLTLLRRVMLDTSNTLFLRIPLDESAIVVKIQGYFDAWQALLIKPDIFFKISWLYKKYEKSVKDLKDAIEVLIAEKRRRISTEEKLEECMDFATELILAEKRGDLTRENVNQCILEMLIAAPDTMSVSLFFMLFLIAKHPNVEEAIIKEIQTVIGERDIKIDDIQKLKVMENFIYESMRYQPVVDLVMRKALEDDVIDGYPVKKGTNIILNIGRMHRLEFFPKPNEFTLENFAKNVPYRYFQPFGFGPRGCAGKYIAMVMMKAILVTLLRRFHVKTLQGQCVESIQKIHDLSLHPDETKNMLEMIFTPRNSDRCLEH
Experimental: (§2) CYP450 inhibition assays (excluding CYP19 and 1 µM CYP2C8) were performed as previously described.[31] Substrate metabolite formation was measured by HPLC‐MS/MS. Percent of control activity was determined by comparing metabolite peak areas with and without test compound. Qualitative screening of CYP2C8 (1 µM) and CYP19 is described in detail in Supporting Information. Reference compound IC50 values were determined by non‐linear regression analysis using Hill equation curve fitting.
In vitro CYP19 screening was carried out in triplicate using a modified HPLC-MS/MS protocol based on methodology provided by Admescope Ltd. DMSO stock solutions of test compounds, positive control liarozole, androstenedione substrate and solvent control were diluted with 100 mM phosphate buffer (pH 7.4) such that DMSO content in final assay conditions was 1% in a volume of 200 µL. Briefly, to a microfuge tube was added 1 µM substrate, 1 mM NAPDH, and 0.1-1 µM test compounds (final concentrations after enzyme addition) in phosphate buffer before pre-incubating for 2 min at 37 °C. CYP19/CYP450 reductase Supersomes™ enzyme (50 µL, 1.5 pmol/mL) was added to each tube, gently mixed, then incubated at 37 °C for 30 min. The reaction was quenched with an equal volume of acetonitrile containing cortisone internal standard (100 nM). […]

MR = molecular target: T4, MR (Homo sapiens, UniProt P08235); assay: Nuclear receptor profiling, luciferase reporter in recombinant HeLa cells; format: cell-based; settings: IA = Inactive
T4 construct: expressed in transfected cells; host or cells: recombinant HeLa cell lines
T4 sequence (P08235 1-984): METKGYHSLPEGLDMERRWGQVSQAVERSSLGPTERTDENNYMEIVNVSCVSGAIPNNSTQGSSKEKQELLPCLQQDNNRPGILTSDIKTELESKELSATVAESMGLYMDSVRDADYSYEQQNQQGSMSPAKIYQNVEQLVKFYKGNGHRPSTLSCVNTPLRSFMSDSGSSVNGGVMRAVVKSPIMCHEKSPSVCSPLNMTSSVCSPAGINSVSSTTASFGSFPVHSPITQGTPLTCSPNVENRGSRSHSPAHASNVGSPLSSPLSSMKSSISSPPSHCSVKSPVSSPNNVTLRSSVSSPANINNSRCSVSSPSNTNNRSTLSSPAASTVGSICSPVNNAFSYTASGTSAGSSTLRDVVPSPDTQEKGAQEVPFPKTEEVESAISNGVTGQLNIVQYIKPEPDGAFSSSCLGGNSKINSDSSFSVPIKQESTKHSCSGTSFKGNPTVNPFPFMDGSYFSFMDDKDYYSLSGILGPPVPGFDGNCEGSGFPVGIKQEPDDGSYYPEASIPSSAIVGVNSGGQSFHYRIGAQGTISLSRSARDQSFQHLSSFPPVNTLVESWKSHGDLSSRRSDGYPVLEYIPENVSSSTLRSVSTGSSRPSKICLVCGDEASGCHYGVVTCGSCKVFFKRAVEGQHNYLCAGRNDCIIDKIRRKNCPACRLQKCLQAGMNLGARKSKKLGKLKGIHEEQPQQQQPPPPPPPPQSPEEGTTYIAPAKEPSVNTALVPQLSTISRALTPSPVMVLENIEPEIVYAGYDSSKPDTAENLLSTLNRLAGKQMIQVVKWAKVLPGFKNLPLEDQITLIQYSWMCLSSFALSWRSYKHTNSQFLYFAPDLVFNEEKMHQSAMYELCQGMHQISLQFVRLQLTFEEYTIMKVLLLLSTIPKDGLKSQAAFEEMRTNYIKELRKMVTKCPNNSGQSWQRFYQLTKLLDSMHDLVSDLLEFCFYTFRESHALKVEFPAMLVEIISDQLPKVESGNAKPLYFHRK
Experimental: as §1

RARα = molecular target: T5, RARα (Homo sapiens, UniProt P10276); assay: as above; format: cell-based
T5 construct: expressed in transfected cells; host or cells: recombinant HeLa cell lines
T5 sequence (P10276 1-462): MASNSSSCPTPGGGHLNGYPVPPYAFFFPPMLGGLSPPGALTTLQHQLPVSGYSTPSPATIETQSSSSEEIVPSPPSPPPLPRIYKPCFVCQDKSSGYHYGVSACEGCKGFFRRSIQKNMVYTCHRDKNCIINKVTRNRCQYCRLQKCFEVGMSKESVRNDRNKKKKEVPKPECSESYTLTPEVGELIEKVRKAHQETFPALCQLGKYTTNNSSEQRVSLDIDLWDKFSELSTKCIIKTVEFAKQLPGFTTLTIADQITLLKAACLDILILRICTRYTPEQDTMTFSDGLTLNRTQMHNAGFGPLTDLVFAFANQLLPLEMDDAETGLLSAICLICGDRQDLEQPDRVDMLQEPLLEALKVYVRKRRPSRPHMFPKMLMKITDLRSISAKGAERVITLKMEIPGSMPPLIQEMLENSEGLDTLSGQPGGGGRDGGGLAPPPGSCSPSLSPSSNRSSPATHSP
Experimental: as §1

RARβ = molecular target: T6, RARβ (Homo sapiens, UniProt P10826); assay: as above; format: cell-based
T6 construct: expressed in transfected cells; host or cells: recombinant HeLa cell lines
T6 sequence (P10826 1-455): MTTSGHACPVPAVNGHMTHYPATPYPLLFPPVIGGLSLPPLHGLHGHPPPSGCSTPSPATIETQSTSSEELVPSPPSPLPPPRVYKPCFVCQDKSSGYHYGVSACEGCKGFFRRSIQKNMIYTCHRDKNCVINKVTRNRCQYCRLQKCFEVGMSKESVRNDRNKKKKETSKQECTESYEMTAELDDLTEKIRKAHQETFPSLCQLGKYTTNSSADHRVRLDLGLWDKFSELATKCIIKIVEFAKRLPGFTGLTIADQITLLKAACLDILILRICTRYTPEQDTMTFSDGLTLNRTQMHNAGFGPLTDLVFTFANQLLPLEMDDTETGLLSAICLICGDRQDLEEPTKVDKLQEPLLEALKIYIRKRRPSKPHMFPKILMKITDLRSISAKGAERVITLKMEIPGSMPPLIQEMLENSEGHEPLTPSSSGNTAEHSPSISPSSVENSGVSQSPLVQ
Experimental: as §1

RARγ = molecular target: T7, RARγ (Homo sapiens, UniProt P13631); assay: as above; format: cell-based; settings: IA = Inactive
T7 construct: expressed in transfected cells; host or cells: recombinant HeLa cell lines
T7 sequence (P13631 1-454): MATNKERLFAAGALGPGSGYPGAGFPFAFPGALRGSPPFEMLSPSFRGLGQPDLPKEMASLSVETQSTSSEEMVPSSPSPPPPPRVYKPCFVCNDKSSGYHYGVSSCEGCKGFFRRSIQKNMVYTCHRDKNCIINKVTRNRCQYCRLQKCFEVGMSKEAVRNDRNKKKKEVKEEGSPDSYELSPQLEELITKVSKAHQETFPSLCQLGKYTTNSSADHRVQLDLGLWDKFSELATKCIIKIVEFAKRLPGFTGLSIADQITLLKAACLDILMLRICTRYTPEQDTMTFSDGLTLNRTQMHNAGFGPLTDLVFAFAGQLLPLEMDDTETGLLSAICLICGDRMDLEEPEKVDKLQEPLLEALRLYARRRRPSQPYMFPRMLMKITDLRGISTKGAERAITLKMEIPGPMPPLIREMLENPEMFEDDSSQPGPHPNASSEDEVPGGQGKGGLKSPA
Experimental: as §1

CYP2B6 = molecular target: T8, CYP2B6 (Homo sapiens, UniProt P20813); assay: CYP450 inhibition assay, human liver microsomes; format: biochemical
T8 construct: from tissue; host or cells: human liver microsomes (per the earlier reading and the cited method)
T8 sequence (P20813 1-491): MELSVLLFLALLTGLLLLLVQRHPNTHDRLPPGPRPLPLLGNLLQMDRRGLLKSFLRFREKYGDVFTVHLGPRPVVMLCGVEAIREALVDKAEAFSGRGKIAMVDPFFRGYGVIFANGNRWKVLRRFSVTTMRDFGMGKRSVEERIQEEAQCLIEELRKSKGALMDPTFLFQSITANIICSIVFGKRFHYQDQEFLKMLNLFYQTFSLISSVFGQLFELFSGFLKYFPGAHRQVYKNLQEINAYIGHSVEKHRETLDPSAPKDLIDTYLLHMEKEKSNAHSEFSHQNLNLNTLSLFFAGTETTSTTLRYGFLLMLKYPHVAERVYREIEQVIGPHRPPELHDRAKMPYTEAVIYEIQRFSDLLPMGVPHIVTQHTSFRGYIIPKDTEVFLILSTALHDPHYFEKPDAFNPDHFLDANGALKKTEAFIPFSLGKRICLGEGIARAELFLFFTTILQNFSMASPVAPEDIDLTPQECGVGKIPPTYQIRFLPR
Experimental: as §2

T1 sequence (P33261 whole entry): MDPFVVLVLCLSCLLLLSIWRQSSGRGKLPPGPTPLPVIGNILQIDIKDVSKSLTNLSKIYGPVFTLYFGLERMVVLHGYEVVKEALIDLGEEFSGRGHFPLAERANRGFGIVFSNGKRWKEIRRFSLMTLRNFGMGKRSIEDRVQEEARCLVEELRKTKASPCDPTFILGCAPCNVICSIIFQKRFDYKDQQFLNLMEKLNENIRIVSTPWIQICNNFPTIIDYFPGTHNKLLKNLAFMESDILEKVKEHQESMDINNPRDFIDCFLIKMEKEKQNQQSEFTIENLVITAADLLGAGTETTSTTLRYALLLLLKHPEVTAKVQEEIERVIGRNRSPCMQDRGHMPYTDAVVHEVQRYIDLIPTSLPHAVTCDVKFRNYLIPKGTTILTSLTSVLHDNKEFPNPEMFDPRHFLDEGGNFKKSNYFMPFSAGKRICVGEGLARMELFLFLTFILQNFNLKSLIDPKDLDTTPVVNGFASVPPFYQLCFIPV

- nH (hill coefficient) (CYP2C19): 0.8
SMILES: CCN(CC)CC#CCOC(=O)C(O)(c1ccccc1)C1CCCCC1 (stereo not shown) [oxybutynin]

- EC50 (LXRβ): 200 nM
SMILES: O=C(O)Cc1cccc(OCCCN(Cc2cccc(C(F)(F)F)c2Cl)CC(c2ccccc2)c2ccccc2)c1 [GW3965]

- inhibition at 0.1 µM (CYP19; 0.1 µM compound, substrate androstenedione, calculated from decrease in metabolite formation, read-out: % Inhibition (reduction of CYP19 activity)): 61.1%
- inhibition at 1 µM (CYP19; reference concentration 1000 nM, androstenedione 1000 nM, 30 min, 37°C): 83.8%
SMILES: Clc1cccc(C(c2ccc3[nH]cnc3c2)n2ccnc2)c1 (stereo not shown) [Liarozole]

- EC50 (MR): 0.4 nM
SMILES: C[C@]12C[C@H](O)[C@H]3[C@@H](CCC4=CC(=O)CC[C@@]43C)[C@@H]1CC[C@@H]2C(=O)CO [Corticosterone]

- EC50 (RARα): 32 nM
- EC50 (RARβ): 3.2 nM
- EC50 (RARγ): 25 nM
SMILES: CC1(C)CCSc2ccc(C#Cc3ccc(C(=O)O)cn3)cc21 [Tazarotenic acid]

SMILES: COC(=O)[C@H](c1ccccc1Cl)N1CCc2sccc2C1 [clopidogrel]
- IC50 (CYP2B6): 370 nM
- nH (hill coefficient) (CYP2B6; substrate bupropion): 1.3
